Measurements published in patent US11116754B2, “Inhibition of TOR complex 2 increases immunity against bacterial infection” (THE TRUSTEES OF COLUMBIA UNIVERSITY IN THE CITY OF NEW YORK, priority 2015, dated 2021).

Columns and labels:
Burkholderia cepacia [1] = assay: Survival of flies after Burkholderia cepacia infection; type: in vivo, Drosophila; conditions: relative to vehicle-fed controls, p<0.0001
Procedure: Infections were performed as previously described (Schneider et al. 2007) with Burkholderia cepacia (ATCC strain #25416). Death was assayed visually the next day every hour or more frequently as needed. Survival curves are plotted as Kaplan-Meier graphs and log-rank analysis performed using GraphPad Prism. All infection experiments were performed with a minimum of 3 independent trials and yielded statistically similar results, except where noted. Graphs and p-values in figures are representative trials.
To directly test the role of TORC1 in survival of infection, TORC1 activity was inhibited in two ways. First, flies were injected with rapamycin, a TORC1-specific inhibitor (9.6 ng per fly, equivalent to the mammalian dose of 16 mg/kg (Lee et al. 2009; Loeweth et al. 2002)).
Wild type flies, 5-7 day old males, were fed two different concentrations (250 μM and 500 μM) of Torin (MedChem Express), a TORC1 and TORC2 inhibitor, for two days prior to infection with Burkholderia cepacia as described in Example 1. Controls were fed a vehicle.

Burkholderia cepacia [2] = assay: Bacterial load quantitation after Burkholderia cepacia infection; type: in vivo, Drosophila; conditions: wild type flies fed Torin vs vehicle-fed flies
Description: Data are plotted with SEM.

Torin
survival of infection (Burkholderia cepacia [1]; wild type male flies fed 250 μM for two days prior to infection): significantly increased
survival of infection (Burkholderia cepacia [1]; wild type male flies fed 500 μM for two days prior to infection): significantly increased
bacterial load (Burkholderia cepacia [2]): not significant change
